This is an account of results in publication doi:10.1101/2024.10.09.24315180v1, “Schizandrin A suppressed pancreatic cancer proliferation and cancer associated fibroblast activation via inhibiting the COX-2/ALOX5 shunting” (medrxiv, 2024).

One assay has as its target T1, COX-2 (Homo sapiens, UniProt P35354).
T1 construct: gene PTGS2; immobilised on CM5 chip
T1 sequence (P35354 18-604): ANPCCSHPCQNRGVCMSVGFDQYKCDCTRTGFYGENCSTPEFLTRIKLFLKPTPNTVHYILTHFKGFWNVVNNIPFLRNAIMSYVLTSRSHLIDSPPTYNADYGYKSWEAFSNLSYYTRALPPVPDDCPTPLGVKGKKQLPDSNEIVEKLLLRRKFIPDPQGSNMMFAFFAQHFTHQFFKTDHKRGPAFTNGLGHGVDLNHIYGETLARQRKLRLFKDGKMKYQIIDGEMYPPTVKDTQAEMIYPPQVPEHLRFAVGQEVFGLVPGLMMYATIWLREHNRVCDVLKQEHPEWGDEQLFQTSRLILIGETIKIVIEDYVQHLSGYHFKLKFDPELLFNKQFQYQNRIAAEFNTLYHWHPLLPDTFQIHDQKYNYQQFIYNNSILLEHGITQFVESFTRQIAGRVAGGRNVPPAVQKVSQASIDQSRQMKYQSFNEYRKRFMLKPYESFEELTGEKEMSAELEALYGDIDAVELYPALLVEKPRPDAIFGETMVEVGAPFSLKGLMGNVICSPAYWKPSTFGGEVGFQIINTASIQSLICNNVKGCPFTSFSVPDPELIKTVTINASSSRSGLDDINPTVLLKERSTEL
Kind of assay: SPR, Biacore T200, CM5 chip, multi-cycle. The format is binding.

The target in a further assay is T2, ALOX5 (Homo sapiens, UniProt P09917).
T2 construct: immobilised on CM5 chip
T2 sequence (P09917 1-674): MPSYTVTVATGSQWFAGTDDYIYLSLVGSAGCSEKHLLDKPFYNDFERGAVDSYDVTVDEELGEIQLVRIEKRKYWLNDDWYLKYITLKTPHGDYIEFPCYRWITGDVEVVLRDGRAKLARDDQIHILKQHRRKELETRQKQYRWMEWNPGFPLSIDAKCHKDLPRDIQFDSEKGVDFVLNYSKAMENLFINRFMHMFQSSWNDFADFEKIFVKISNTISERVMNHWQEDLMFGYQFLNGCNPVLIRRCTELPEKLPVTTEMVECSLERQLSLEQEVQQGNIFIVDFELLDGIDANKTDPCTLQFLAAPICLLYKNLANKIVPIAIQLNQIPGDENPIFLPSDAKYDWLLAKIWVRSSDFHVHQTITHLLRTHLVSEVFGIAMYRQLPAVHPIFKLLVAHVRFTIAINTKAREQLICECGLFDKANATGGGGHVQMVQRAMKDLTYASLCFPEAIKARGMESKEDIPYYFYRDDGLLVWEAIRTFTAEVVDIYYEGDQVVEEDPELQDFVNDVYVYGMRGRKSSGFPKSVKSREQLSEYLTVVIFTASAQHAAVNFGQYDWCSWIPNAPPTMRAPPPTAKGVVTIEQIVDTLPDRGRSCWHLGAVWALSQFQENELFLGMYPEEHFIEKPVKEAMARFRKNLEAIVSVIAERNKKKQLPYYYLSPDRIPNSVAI
Description: SPR, Biacore T200, CM5 chip, multi-cycle. The format is binding. In general terms: SPR reads the build-up and loss of mass on a sensor chip optically.

A word on the Kd: it is a measure of binding affinity in units of concentration. Read a high Kd as a looser complex.

`COc1cc2c(c(OC)c1OC)-c1c(cc(OC)c(OC)c1OC)C[C@H](C)[C@H](C)C2` [Schizandrin A]: the values for the Kd on COX-2 and at ALOX5 were 14.8 µM and 21.8 µM, respectively.
